Laboratory results as given in the supplement of paper PMC9663587.

Experiments:
Neratinib/HKI272 [1] = compound: T1, CCOc1cc2ncc(C#N)c(Nc3ccc(OCc4ccccn4)c(Cl)c3)c2cc1NC(=O)/C=C/CN(C)C [Neratinib/HKI272]; assay: GR value, 72 h; higher = faster growth (1 = untreated, <0 = killing);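 note: breast cancer and non-malignant breast epithelial lines, nine half-log doses, viable cells counted by Hoechst and LIVE/DEAD dye imaging versus time-zero plates and DMSO controls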
Flavopiridol = compound: CN1CC[C@H](c2c(O)cc(O)c3c(=O)cc(-c4ccccc4Cl)oc23)[C@H](O)C1 [Flavopiridol]; assay: as above
YKL-5-124 = compound: C=CC(=O)Nc1ccc(C(=O)Nc2[nH]nc3c2CN(C(=O)N[C@H](CN(C)C)c2ccccc2)C3(C)C)cc1 [YKL-5-124]; assay: increase in dead-cell fraction, 72 h; higher = more death;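 note: breast cancer cell lines in 384-well plates, stained with Hoechst plus LIVE/DEAD far red dye and imaged, cells above an LDR intensity threshold counted dead, Hoechst-negative corpses included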
[2] = compound: CCc1cnn2c(NCc3ccc[n+]([O-])c3)cc(N3CCCC[C@H]3CCO)nc12; assay: as above
BSJ-03-123 = compound: CC(=O)c1c(C)c2cnc(Nc3ccc(N4CCN(CCOCCOCCOCCNC(=O)COc5cccc6c5C(=O)N(C5CCC(=O)NC5=O)C6=O)CC4)cn3)nc2n(C2CCCC2)c1=O [BSJ-03-123]; assay: as above
Neratinib/HKI272 [3] = compound: T1, Neratinib/HKI272; assay: as above

Cell Line: HCC70
- GR value (Neratinib/HKI272 [1]; 0.0003162 µM): 1.04 GR
- GR value (Neratinib/HKI272 [1]; 0.001 µM): 0.943 GR
- GR value (Neratinib/HKI272 [1]; 0.003162 µM): 1.02 GR
- GR value (Neratinib/HKI272 [1]; 0.01 µM): 0.986 GR
- GR value (Neratinib/HKI272 [1]; 0.03162 µM): 0.79 GR
- GR value (Neratinib/HKI272 [1]; 0.1 µM): 0.621 GR
- GR value (Neratinib/HKI272 [1]; 0.3162 µM): 0.377 GR
- GR value (Neratinib/HKI272 [1]; 1 µM): 0.128 GR
- GR value (Neratinib/HKI272 [1]; 3.162 µM): 0.0733 GR
- GR value (Flavopiridol; 0.0001 µM): 1.05 GR
- GR value (Flavopiridol; 0.0003162 µM): 1.01 GR
- GR value (Flavopiridol; 0.001 µM): 1.1 GR
- GR value (Flavopiridol; 0.003162 µM): 1.16 GR
- GR value (Flavopiridol; 0.01 µM): 0.998 GR
- GR value (Flavopiridol; 0.03162 µM): 0.791 GR
- GR value (Flavopiridol; 0.1 µM): 0.371 GR
- GR value (Flavopiridol; 0.3162 µM): -0.694 GR
- GR value (Flavopiridol; 1 µM): -0.815 GR
- increase in dead-cell fraction (YKL-5-124; 0.001 µM): 0.0881
- increase in dead-cell fraction (YKL-5-124; 0.003162 µM): 0.0945
- increase in dead-cell fraction (YKL-5-124; 0.01 µM): 0.148
- increase in dead-cell fraction (YKL-5-124; 0.03162 µM): 0.205
- increase in dead-cell fraction (YKL-5-124; 0.1 µM): 0.254
- increase in dead-cell fraction (YKL-5-124; 0.3162 µM): 0.285
- increase in dead-cell fraction (YKL-5-124; 1 µM): 0.376
- increase in dead-cell fraction (YKL-5-124; 3.162 µM): 0.41
- increase in dead-cell fraction (YKL-5-124; 10 µM): 0.726
- increase in dead-cell fraction ([2]; 0.0001 µM): 0.0046
- increase in dead-cell fraction ([2]; 0.0003162 µM): 0.0037
- increase in dead-cell fraction ([2]; 0.001 µM): -0.003
- increase in dead-cell fraction ([2]; 0.003162 µM): -0.0058
- increase in dead-cell fraction ([2]; 0.01 µM): 0.0306
- increase in dead-cell fraction ([2]; 0.03162 µM): 0.699
- increase in dead-cell fraction ([2]; 0.1 µM): 0.734
- increase in dead-cell fraction ([2]; 0.3162 µM): 0.721
- increase in dead-cell fraction ([2]; 1 µM): 0.74
- increase in dead-cell fraction (BSJ-03-123; 0.001 µM): -0.0022
- increase in dead-cell fraction (BSJ-03-123; 0.003162 µM): -0.0076
- increase in dead-cell fraction (BSJ-03-123; 0.01 µM): -0.0082
- increase in dead-cell fraction (BSJ-03-123; 0.03162 µM): -0.0024
- increase in dead-cell fraction (BSJ-03-123; 0.1 µM): 0.0042
- increase in dead-cell fraction (BSJ-03-123; 0.3162 µM): -0.0019
- increase in dead-cell fraction (BSJ-03-123; 1 µM): -0.0038
- increase in dead-cell fraction (BSJ-03-123; 3.162 µM): 0.0046
- increase in dead-cell fraction (BSJ-03-123; 10 µM): 0.317
- increase in dead-cell fraction (Neratinib/HKI272 [3]; 0.0003162 µM): 0.0098
- increase in dead-cell fraction (Neratinib/HKI272 [3]; 0.001 µM): 0.0142
- increase in dead-cell fraction (Neratinib/HKI272 [3]; 0.003162 µM): 0.015
- increase in dead-cell fraction (Neratinib/HKI272 [3]; 0.01 µM): 0.0157
- increase in dead-cell fraction (Neratinib/HKI272 [3]; 0.03162 µM): 0.0249
- increase in dead-cell fraction (Neratinib/HKI272 [3]; 0.1 µM): 0.0312
- increase in dead-cell fraction (Neratinib/HKI272 [3]; 0.3162 µM): 0.0482
- increase in dead-cell fraction (Neratinib/HKI272 [3]; 1 µM): 0.0703
- increase in dead-cell fraction (Neratinib/HKI272 [3]; 3.162 µM): 0.147
